US6548687B1, “Chromium L-threonate, process for preparation of the same and their use” (priority 1998, dated 2003)
Read-outs that look alike come from different tables or passages of the source.

Tests used:
[1] = for Stable Constant: coordination compound of L-threonic acid and chromic ion, deduced with computer simulation from titration curves; for pH: pH range of the coordination compound model, deduced with computer simulation
[2] = Precipitation of chromic hydroxide as a function of pH; type: physicochemical

## O=C(O)[C@H](O)[C@@H](O)CO.[O]=[Cr](=[O])([OH])[OH] [Model A, chromate L-threonate]
[1]; listed as A
  Stable Constant: −4.42 ± 0.14
  pH: ˜4.5

## O=C(O)[C@H](O)[C@@H](O)CO.[O]=[Cr](=[O])([OH])[OH] [Model B, chromate L-threonate]
[1]; listed as B
  Stable Constant: −0.74 ± 0.34
  pH: 3.5-4.0

## O=C(O)[C@H](O)[C@@H](O)CO.[O]=[Cr](=[O])([OH])[OH] [Model C, chromate L-threonate]
[1]; listed as C
  Stable Constant: −9.35 ± 0.26
  pH: ˜6.0

## O=C(O)[C@H](O)[C@@H](O)CO.[O]=[Cr](=[O])([OH])[OH] [chromate L-threonate]
In alcohol and ether
  dissolution: no dissolution
In water
  dissolution: dissolution in water
[2]; even in basic condition
  precipitate of chromic hydroxide: no precipitate

## [Cl][Cr]([Cl])[Cl] [chromic chloride]
[2]
  pH at which solution forms precipitate: ~4

## O=S(=O)([O-])[O-].O=S(=O)([O-])[O-].O=S(=O)([O-])[O-].[Cr+3].[Cr+3] [chromic sulphate]
[2]
  pH at which solution forms precipitate: ~4
